Consider 6 compounds from ChEMBL document CHEMBL1201862, “PubChem BioAssay data set” (2004).

Test [1] deals with Peroxisome proliferator-activated receptor gamma/Nuclear receptor coactivator 1 (Homo sapiens, UniProt P37231). Briefly: TR-FRET dose response biochemical High Throughput Screening assay for agonists of the steroid receptor coactivator 1 (SRC-1) recruitment by the peroxisome proliferator-activated receptor gamma (PPAR gamma): non-selective agonists. [Related pubchem assays (depositor defined):AID1300, AID1808, AID504735, AID631]. In kind it is protein assay. In general terms: Time-resolved FRET reads energy transfer from a long-lived donor to a nearby acceptor.

Test [2] deals with Peroxisome proliferator-activated receptor gamma/Nuclear receptor coactivator 3 (Homo sapiens, UniProt P37231). Briefly: TR-FRET dose response biochemical High Throughput Screening assay for agonists of the steroid receptor coactivator 3 (SRC-3) recruitment by the peroxisome proliferator-activated receptor gamma (PPAR gamma): non-selective agonists. [Related pubchem assays: 1301 (Confirmation screen.), 1048 (Primary screen.)]. In kind it is functional.

Test [3] has as its target Peroxisome proliferator-activated receptor gamma/Nuclear receptor coactivator 2 (Homo sapiens, UniProt P37231). Put plainly: TR-FRET dose response biochemical High Throughput Screening assay for agonists of the steroid receptor coactivator 2 (SRC-2) recruitment by the peroxisome proliferator-activated receptor gamma (PPAR gamma): non-selective agonists. [Related pubchem assays: 1297, 1032 ]. It counts as functional.

Test [4] has as its target FAD-linked sulfhydryl oxidase ALR (Homo sapiens, UniProt P55789). Briefly: ALR-catalysed DTT oxidation blockers – biochemical, H2O2 detection, luminescence, cherry-pick, dose response (AID 493248).
Test [5] addresses T1, Kappa-type opioid receptor (Homo sapiens, UniProt P41145). Briefly: SAR analysis of small molecule agonists of the kappa opioid receptor via a luminescent beta-arrestin assay - Set 3. [Related pubchem assays (depositor defined):AID1777, AID1785, AID1786, AID1966, AID2133, AID2136, AID2284, AID2500]. In kind it is functional.
Test [6] concerns the target T2, E3 ubiquitin-protein ligase XIAP (Homo sapiens, UniProt P98170). Briefly: Counter Screen using XIAP-Bir3 for Chemical Antagonists of Bir1/2 domains of IAP-family anti-apoptotic proteins. [Related pubchem assays (depositor defined):AID1018, AID1449, AID1514, AID1638, AID1749, AID1750, AID488957, AID488963].
Test [7] addresses T2, E3 ubiquitin-protein ligase XIAP. Put plainly: small molecules displacing peptide from XIAP – biochemical, IAP family, fluorescence polarization (AID 1018). It counts as functional. On the technique in general: Polarisation of emitted light reports the rotation of a fluorescent probe.
In test [8] the target is T3, Delta-type opioid receptor (Homo sapiens, UniProt P41143). Briefly: HTS Image-Based Screen for Antagonists of the DOR Receptor. [Related pubchem assays (depositor defined):AID1777, AID1785, AID1786, AID2133]. In kind it is functional.
T3 sequence (P41143 whole entry): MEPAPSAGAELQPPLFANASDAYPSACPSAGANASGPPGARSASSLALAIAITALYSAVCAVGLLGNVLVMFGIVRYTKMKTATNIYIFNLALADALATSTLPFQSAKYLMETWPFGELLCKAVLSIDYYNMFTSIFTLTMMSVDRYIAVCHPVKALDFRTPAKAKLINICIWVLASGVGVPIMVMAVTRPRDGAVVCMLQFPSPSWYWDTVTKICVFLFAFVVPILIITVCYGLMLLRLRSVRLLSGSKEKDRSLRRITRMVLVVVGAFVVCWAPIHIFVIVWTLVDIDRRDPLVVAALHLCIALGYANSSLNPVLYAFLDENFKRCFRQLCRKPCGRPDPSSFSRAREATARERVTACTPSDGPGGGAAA
Test [9] deals with T4, Mu-type opioid receptor (Homo sapiens, UniProt P35372). Briefly: HTS Image-Based Screen for Agonists of the MOR Receptor. [Related pubchem assays (depositor defined):AID1777, AID1785, AID1786, AID2133]. It counts as functional.
T4 sequence (P35372 whole entry): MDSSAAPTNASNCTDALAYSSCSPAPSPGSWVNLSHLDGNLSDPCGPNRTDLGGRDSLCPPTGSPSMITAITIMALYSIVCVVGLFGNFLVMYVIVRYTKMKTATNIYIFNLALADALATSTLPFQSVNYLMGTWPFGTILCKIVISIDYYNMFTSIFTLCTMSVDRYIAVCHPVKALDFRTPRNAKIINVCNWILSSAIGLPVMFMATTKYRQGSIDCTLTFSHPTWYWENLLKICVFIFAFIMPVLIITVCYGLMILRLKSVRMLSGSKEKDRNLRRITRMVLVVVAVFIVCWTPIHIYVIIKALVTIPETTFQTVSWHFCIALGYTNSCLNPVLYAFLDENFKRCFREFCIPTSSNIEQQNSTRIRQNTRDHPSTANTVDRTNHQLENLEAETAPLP
Test [10] deals with T3, Delta-type opioid receptor. Put plainly: HTS Image-Based Screen for Agonists of the DOR Receptor. [Related pubchem assays (depositor defined):AID1777, AID1786, AID2133]. In kind it is functional.
The target of test [11] is T1, Kappa-type opioid receptor. In kind it is functional.
The target of test [12] is T1, Kappa-type opioid receptor. In kind it is functional. The source holds these as a separate data set.
The target of test [13] is T1, Kappa-type opioid receptor. Put plainly: SAR analysis of small molecule agonists of the kappa opioid receptor via a luminescent beta-arrestin assay. [Related pubchem assays (depositor defined):AID1777, AID1786, AID1966, AID2133, AID2136, AID2348, AID2352, AID2357, AID2359, AID2370, AID2420, AID2478, AID2491, AID2492, AID2493, AID2497, AID2498, AID2500, AID449737, AID488822, AID488842]. In kind it is functional.

Test [14] has as its target T4, Mu-type opioid receptor. Briefly: mu opioid receptor activators, image-based, SAR follow-up (AID 2352). In kind it is functional.
For test [15], the target named is T3, Delta-type opioid receptor. Briefly: DOR agonists, SAR follow-up, image-based (AID 2370). In kind it is functional.
Test [16] has as its target T1, Kappa-type opioid receptor. Briefly: kappa opioid receptor blockers, image-based, SAR follow-up (AID 2348). In kind it is functional.
For another test, the target named is T5, Coagulation factor XII (Homo sapiens, UniProt P00748).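 Note: activated factor XIIa alpha cleaving a fluorogenic AMC peptide substrate; inhibitor potency from loss of enzyme activity.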
T5 sequence (P00748 whole entry): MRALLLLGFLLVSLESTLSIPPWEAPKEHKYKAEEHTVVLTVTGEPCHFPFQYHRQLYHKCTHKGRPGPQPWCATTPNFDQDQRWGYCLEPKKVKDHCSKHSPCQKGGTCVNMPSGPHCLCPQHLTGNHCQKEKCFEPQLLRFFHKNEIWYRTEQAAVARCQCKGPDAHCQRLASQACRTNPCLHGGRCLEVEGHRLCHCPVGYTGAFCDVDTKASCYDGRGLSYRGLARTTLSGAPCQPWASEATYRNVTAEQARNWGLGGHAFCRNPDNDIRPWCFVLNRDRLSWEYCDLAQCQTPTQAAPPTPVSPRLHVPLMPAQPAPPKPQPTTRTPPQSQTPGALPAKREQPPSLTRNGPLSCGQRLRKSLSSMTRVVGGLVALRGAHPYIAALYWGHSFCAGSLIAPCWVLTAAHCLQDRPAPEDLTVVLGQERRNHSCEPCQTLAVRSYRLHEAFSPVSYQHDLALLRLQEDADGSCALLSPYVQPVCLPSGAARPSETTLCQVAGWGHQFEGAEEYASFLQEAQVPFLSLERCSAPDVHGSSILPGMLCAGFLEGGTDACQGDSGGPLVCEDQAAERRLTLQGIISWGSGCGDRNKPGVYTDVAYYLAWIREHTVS
In kind it is functional.

Test [17] deals with T4, Mu-type opioid receptor. Briefly: mu opioid receptor blockers – image-based, SAR follow-up (AID 2420).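 Note: compounds added before stimulation of receptor with agonist DAMGO.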 In kind it is functional.
Test [18] deals with T1, Kappa-type opioid receptor. Put plainly: kappa opioid receptor activation potency – imaging, image-based, SAR follow-up (AID 2359). In kind it is functional.
Test [19] concerns the target T3, Delta-type opioid receptor. Put plainly: delta opioid receptor blockers – image-based, SAR follow-up (AID 2357). In kind it is functional.
A further test deals with HEK293. Briefly: Fluorescence-based counterscreen for potentiators or agonists of NPY-Y2: cell-based high-throughput dose response assay to identify inhibitors of cyclic nucleotide gated ion channel (CNGC) activity. In this assay, the parental HEK293 cell line transfected with a cyclic-nucleotide gated ion channel (CNGC)-based cAMP sensor is used to measure inhibition of isoproterenol-induced CNGC activity by test compound. In kind it is functional. Conditions: Homo sapiens. For orientation: Counterscreens check selectivity or assay interference.

Test [20] addresses T6, Runt-related transcription factor 1/Core-binding factor subunit beta (Homo sapiens, UniProt Q01196+Q13951). Briefly: disruptors of Runt domain/CBFb-SMMHC interaction – biochemical, FRET, Cerulean-Runt, Venus-CBFb-SMMHC, uHTS, […] (AID 1434). In kind it is protein assay.
The target of test [21] is T7, Neuropeptide Y receptor type 2 (Homo sapiens, UniProt P49146).
T7 sequence (P49146 whole entry): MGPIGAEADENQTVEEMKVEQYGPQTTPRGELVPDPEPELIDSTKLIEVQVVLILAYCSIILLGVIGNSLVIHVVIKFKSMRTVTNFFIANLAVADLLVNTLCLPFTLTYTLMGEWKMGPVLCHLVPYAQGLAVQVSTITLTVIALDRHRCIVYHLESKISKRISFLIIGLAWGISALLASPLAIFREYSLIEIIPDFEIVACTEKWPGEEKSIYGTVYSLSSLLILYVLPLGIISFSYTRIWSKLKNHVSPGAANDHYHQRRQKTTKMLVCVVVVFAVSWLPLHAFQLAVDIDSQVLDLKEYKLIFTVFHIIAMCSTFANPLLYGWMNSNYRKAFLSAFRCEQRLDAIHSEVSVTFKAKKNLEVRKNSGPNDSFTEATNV
Briefly: Fluorescence-based cell-based high-throughput dose response assay for agonists of NPY-Y2. [Related pubchem assays: 1703 (Screening assay (CNGC inhibitors).), 1359 (Screening assay (NPY-Y2 potentiators or agonists).), 1304 (Screening assay (NPY-Y1 potentiators or agonists).), 1710 (Screening assay (NPY-Y2 agonists).), 1791 (Summary AID.)]. It counts as functional.

Test [22] deals with T6, Runt-related transcription factor 1/Core-binding factor subunit beta. Put plainly: Runt domain/CBFb-SMMHC interaction disruptors – biochemical, TR-FRET (AID 1438). In kind it is protein assay.
The target in test [23] is T8, Neuropeptide Y receptor type 1 (Homo sapiens, UniProt P25929).
T8 sequence (P25929 whole entry): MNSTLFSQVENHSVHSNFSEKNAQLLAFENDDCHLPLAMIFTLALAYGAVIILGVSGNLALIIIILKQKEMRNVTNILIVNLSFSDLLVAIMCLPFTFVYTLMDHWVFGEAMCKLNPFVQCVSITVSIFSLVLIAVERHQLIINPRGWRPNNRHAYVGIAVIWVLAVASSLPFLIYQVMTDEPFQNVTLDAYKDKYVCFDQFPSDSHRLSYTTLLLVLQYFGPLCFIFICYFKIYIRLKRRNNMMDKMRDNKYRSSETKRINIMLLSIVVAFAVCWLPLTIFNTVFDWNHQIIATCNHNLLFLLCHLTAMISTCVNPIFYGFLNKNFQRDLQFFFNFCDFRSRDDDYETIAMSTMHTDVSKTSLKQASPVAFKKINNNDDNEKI
Briefly: Fluorescence-based counterscreen for agonists of NPY-Y2: cell-based high-throughput dose response assay for agonists of NPY-Y1. In kind it is functional.

Test [24] addresses Sphingosine 1-phosphate receptor 1 (Homo sapiens, UniProt P21453). Put plainly: Fluorescence-based counterscreen assay for S1P4 agonists: Cell-based dose response high throughput screening assay to identify agonists of the Sphingosine 1-Phosphate Receptor 1 (S1P1). [Related pubchem assays (depositor defined):AID1509, AID1523, AID1801, AID463107, AID463118, AID463119, AID463122, AID463123, AID463129, AID463225, AID504400, AID504460]. It counts as functional.

The target of test [25] is Sphingosine 1-phosphate receptor 4 (Homo sapiens, UniProt O95977). Briefly: Fluorescence dose response cell-based high throughput screening assay for agonists of the Sphingosine 1-Phosphate Receptor 4 (S1P4). [Related pubchem assays: 1509 (Primary screen.), 1523 (Confirmation screen in triplicates.)]. It counts as functional.
Sequence of Sphingosine 1-phosphate receptor 4 (O95977 whole entry): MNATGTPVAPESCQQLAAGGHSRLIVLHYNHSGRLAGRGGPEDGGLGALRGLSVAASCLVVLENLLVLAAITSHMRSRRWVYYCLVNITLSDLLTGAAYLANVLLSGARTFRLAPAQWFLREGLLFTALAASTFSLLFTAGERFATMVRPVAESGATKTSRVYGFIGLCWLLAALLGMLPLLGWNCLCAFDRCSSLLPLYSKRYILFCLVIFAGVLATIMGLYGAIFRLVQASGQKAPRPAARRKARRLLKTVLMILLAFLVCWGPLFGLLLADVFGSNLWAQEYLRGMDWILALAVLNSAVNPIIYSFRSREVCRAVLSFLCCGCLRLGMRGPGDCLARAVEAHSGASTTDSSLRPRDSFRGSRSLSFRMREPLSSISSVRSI

Activity calls are given as the source filed them.

T1 sequence (P41145 whole entry): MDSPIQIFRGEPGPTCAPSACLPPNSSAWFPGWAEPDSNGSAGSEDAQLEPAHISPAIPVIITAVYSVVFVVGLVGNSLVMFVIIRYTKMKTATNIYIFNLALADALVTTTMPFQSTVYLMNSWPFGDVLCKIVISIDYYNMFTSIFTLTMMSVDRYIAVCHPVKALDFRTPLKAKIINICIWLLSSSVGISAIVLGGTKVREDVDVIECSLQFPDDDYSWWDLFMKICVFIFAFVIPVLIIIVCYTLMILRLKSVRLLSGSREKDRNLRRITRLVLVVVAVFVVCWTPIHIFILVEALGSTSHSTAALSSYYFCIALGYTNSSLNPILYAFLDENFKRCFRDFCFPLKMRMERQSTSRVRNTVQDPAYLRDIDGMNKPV
T6 sequence (Q01196 whole entry, the tested form may be a part): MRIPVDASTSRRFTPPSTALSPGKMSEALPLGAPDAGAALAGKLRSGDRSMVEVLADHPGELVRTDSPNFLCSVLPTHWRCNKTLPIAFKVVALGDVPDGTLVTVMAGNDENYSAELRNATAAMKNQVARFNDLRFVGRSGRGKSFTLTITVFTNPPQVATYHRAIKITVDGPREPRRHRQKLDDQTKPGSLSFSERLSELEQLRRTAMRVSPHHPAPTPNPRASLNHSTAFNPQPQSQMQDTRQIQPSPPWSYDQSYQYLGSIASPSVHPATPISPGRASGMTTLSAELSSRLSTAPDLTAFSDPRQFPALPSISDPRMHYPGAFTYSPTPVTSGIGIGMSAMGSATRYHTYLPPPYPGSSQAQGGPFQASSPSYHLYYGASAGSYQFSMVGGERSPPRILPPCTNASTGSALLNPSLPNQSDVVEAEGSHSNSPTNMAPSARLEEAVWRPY
T6 sequence (Q13951 whole entry, the tested form may be a part): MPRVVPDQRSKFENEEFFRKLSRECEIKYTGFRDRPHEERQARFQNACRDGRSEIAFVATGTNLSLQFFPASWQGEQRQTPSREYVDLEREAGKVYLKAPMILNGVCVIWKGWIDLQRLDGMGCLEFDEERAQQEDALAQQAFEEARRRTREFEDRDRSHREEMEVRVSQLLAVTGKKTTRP
T2 sequence (P98170 whole entry): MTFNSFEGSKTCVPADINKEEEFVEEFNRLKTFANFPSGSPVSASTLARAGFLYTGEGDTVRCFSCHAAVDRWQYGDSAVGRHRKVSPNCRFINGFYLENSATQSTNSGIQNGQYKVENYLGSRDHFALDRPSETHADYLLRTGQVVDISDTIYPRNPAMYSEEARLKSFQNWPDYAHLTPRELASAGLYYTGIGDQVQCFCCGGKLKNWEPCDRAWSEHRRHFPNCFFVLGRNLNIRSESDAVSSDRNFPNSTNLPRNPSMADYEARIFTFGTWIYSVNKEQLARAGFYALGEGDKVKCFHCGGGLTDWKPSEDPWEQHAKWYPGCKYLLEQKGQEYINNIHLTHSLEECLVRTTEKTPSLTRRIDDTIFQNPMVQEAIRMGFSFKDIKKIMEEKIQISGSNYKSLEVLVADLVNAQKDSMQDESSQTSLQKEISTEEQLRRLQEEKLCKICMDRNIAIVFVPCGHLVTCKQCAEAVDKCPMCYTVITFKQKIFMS
Sequence of Sphingosine 1-phosphate receptor 1 (P21453 whole entry): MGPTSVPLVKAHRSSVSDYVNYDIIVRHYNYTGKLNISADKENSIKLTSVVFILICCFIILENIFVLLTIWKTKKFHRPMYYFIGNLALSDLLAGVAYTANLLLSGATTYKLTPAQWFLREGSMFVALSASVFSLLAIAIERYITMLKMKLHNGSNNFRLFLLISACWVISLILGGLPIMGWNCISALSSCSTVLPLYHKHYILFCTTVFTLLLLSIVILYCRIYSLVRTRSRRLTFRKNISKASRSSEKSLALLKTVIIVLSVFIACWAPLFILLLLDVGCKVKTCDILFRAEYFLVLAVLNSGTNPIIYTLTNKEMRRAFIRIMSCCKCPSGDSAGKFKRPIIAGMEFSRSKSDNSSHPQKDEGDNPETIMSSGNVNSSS
Sequence of FAD-linked sulfhydryl oxidase ALR (P55789 whole entry): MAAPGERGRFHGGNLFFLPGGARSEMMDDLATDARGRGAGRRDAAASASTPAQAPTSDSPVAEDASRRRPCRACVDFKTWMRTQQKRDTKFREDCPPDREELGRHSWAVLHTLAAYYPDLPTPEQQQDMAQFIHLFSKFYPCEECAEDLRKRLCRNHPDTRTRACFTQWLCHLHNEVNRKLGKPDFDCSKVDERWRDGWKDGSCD

For `Cc1c(Cl)c(-c2nnc(S)n2-c2ccccc2)nn1C`, the EC50 (as a rule, the midpoint of the concentration-response curve) in test [1] was > 79.4 µM (inactive); in [2] it was > 79.4 µM (not active); in test [3], > 79.4 µM (not active). Besides, the AC50 (as a rule, the concentration at which the activity in the assay is half-maximal) in test [4] is < 0.014 µM (active).
Consider `COc1ccc(Cn2c(SCc3ccc(Br)cc3)nnc2-c2ccccn2)cc1`, for which, in [5], the EC50 is > 20 µM (inactive).
With `CCOc1ccc(NC(=S)NCCCN2CCN(C3CCCCC3)CC2)cc1`, the IC50 (commonly the midpoint of a concentration-inhibition curve) in test [6] is > 100 µM (inactive); in test [7], > 100 µM (not active).
For the compound `CCC(C)(C(=O)NC1CCCCC1)N(Cc1ccco1)C(=O)c1ccccn1` (configuration not stated), the IC50 in test [8] is > 32 µM (inactive); in test [16], > 32 µM (inactive); on Coagulation factor XII, > 50 µM (inactive); at Mu-type opioid receptor [17] it was > 32 µM (inactive); in test [19], > 32 µM (inactive). Also, the EC50 at Mu-type opioid receptor [9] was > 32 µM (inactive); in test [10], > 32 µM (inactive); in test [11] it was below 0.5 µM; in test [12] it was 0.251 µM; in [13], 0.645 µM (active); on Mu-type opioid receptor [14] it was > 32 µM (inactive). For the same compound, the EC50 in test [15] is > 32 µM (inactive); in test [18], 0.168 µM (active).
In the case of `Cc1cc(/C=N/NC(=O)Cn2c3ccccc3c(=O)c3ccccc32)c(C)n1-c1ccc(Cl)cc1`, the EC50 was 3.28 µM (active) in the test with HEK293, > 35.4 µM (not active) in test [21] and > 35.4 µM (not active) in [23]. The IC50 is 4.69 µM (active) in test [20] and 11.6 µM (active) in [22].
Turning to `CCNC(=O)NC(=O)C(C)OC(=O)c1c(C)nn(Cc2ccccc2)c1Cl` (configuration not stated), the EC50 is > 49.8 µM (inactive) in test [24] and 49.8 µM (not active) in [25].
